Holding throughout (type): functional, cell-based
For one assay, the system named is Kasumi 1. The assay can be described thus: Antiproliferative activity against human Kasumi 1 cells assessed as inhibition cell proliferation incubated for 72 hrs by MTT assay. Conditions: Kasumi 1, 72 h. Background: Formazan colour is commonly taken as a measure of viable cells.
Assay [1] in a line: Antiproliferative activity against mouse WEHI-3 cells assessed as inhibition cell proliferation incubated for 72 hrs by MTT assay. The conditions noted are these: WEHI-3, 72 h.
Another assay relates to MV4-11. As to the kind of experiment: Antiproliferative activity against human MV4-11 cells assessed as inhibition cell proliferation incubated for 72 hrs by MTT assay. Conditions: MV4-11, 72 h.

Among the data in ChEMBL document CHEMBL6115002, “Discovery of novel sitolactone derivative leading to PANoptosis and differentiation of acute myeloid leukemia cells” (Eur J Med Chem, 2025) are IC50 values, retold here.

As a reminder, the IC50 is the concentration at which inhibition is half-maximal. In the case of `C#CCCCC(=O)O[C@H]1CC[C@H]2[C@@H]3CC(=C)C(=O)O[C@@H]3CC[C@]12C`, the IC50 (in the assay with Kasumi 1; in assay [1]; in the assay with MV4-11) was more than 20 µM each time.
On to `C=C1C[C@@H]2[C@@H](CC[C@]3(C)[C@@H](OC(C)(C)C)CC[C@@H]23)OC1=O`, for which the values for the concentration for half-maximal inhibition (IC50) (with Kasumi 1; in assay [1]; with MV4-11) were 8.98 µM, 7.17 µM and 11.7 µM, respectively.
In the same order, the values of `C=C1C[C@@H]2[C@@H](CC[C@]3(C)[C@@H](OC(=O)c4ccc(C(F)(F)F)cn4)CC[C@@H]23)OC1=O` are 15.3 µM, 8.21 µM and 14.2 µM.
In the case of `C=C1C[C@@H]2[C@@H](CC[C@]3(C)[C@@H](OC(=O)c4ccc(CC)cc4)CC[C@@H]23)OC1=O`, the IC50 in the assay on Kasumi 1 was found to be 10.3 µM; in assay [1] it was 6.73 µM; with MV4-11, 16.4 µM.
For the compound `C=C[Si](C)(C)O[C@H]1CC[C@H]2[C@@H]3CC(=C)C(=O)O[C@@H]3CC[C@]12C`, the 50% inhibitory concentration (IC50) (with Kasumi 1; in assay [1]; in the assay on MV4-11) was more than 20 µM throughout.
For `C=C1C[C@@H]2[C@@H](CC[C@]3(C)[C@@H](O[Si](CC)(CC)CC)CC[C@@H]23)OC1=O`, the results for the 50% inhibitory concentration (IC50) (with Kasumi 1; in assay [1]; with MV4-11) were 2.97 µM, 2.14 µM and 4.53 µM, respectively.
In the same order, the values of `C=C1C[C@@H]2[C@@H](CC[C@]3(C)[C@@H](OS(=O)(=O)c4cccs4)CC[C@@H]23)OC1=O` are 9.32 µM, 8.25 µM and 8.71 µM.
As to `C=C1C[C@@H]2[C@@H](CC[C@]3(C)[C@@H](OC(=O)c4ccc(F)cc4)CC[C@@H]23)OC1=O`, the IC50 with Kasumi 1 was determined as 10.4 µM; in assay [1] it was 6.27 µM; in the assay on MV4-11, 13.4 µM.
For `C=C1C[C@@H]2[C@@H](CC[C@]3(C)[C@@H](O[Si](c4ccccc4)(c4ccccc4)c4ccccc4)CC[C@@H]23)OC1=O`, in that order: 5.86 µM, 4.61 µM and 5.32 µM.
In the same order, the values of `C=C1C[C@@H]2[C@@H](CC[C@]3(C)[C@@H](OC(c4ccccc4)c4ccccc4)CC[C@@H]23)OC1=O` are 2.89 µM, 3.58 µM and 4.66 µM.
In the case of `C=C1C[C@@H]2[C@@H](CC[C@]3(C)[C@@H](O[Si](OC)(OC)OC)CC[C@@H]23)OC1=O`, the concentration for half-maximal inhibition (IC50) (in the assay with Kasumi 1; in assay [1]; with MV4-11) was more than 20 µM each time.
Consider `C=C1C[C@@H]2[C@@H](CC[C@]3(C)[C@@H](OS(=O)(=O)c4ccc(C)cc4)CC[C@@H]23)OC1=O`, for which the IC50 with Kasumi 1 was 8.25 µM; in assay [1], 9.28 µM; with MV4-11 it was 9.46 µM.
In the same order, the values of `C=C1C[C@@H]2[C@@H](CC[C@]3(C)[C@@H](OC(=O)c4ccccc4)CC[C@@H]23)OC1=O` are 18.8 µM, 10.3 µM and 16 µM.
For `C=C1C[C@@H]2[C@@H](CC[C@]3(C)[C@@H](O[Si](C)(C)C4CCCCC4)CC[C@@H]23)OC1=O`, in that order: 9.25 µM, 7.96 µM and 10.4 µM.
For `C=C1C[C@@H]2[C@@H](CC[C@]3(C)[C@@H](OC(=O)c4ccc(C(F)(F)F)cc4)CC[C@@H]23)OC1=O`, in that order: 9.97 µM, 10.2 µM and 16.6 µM.
Turning to `C=C1C[C@@H]2[C@@H](CC[C@]3(C)[C@@H](OC(=O)c4ccc(-c5ccccc5)cc4)CC[C@@H]23)OC1=O`, the IC50 was found to be 18.1 µM in the assay on Kasumi 1, 14.3 µM in assay [1] and 20 µM in the assay on MV4-11.
In the same order, the values of `C=C1C[C@@H]2[C@@H](CC[C@]3(C)[C@@H](O[Si](C)(C)CCCCCCCCCCCCCCCCCC)CC[C@@H]23)OC1=O` are 5.93 µM, 6.25 µM and 8.89 µM.
For `C=C1C[C@@H]2[C@@H](CC[C@]3(C)[C@@H](OS(=O)(=O)c4ccc(OC)cc4)CC[C@@H]23)OC1=O`, in that order: 8.36 µM, 9.29 µM and 14.6 µM.
In the same order, the values of `CC(C)[Si](O[C@H]1CC[C@H]2[C@@H]3CCC(=O)O[C@@H]3CC[C@]12C)(C(C)C)C(C)C` are more than 20 µM, more than 20 µM and more than 20 µM.
As for `C=C1C[C@@H]2[C@@H](CC[C@]3(C)[C@@H](O[Si](C)(C)C(C)(C)C)CC[C@@H]23)OC1=O`, the IC50 in the assay with Kasumi 1 was determined as 3.72 µM; in assay [1] it was 2.36 µM; with MV4-11, 8.36 µM.
In the same order, the values of `C=C1C[C@@H]2[C@@H](CC[C@]3(C)[C@@H](OS(=O)(=O)CCCCCCC)CC[C@@H]23)OC1=O` are more than 20 µM, more than 20 µM and more than 20 µM.
For `C=C1C[C@@H]2[C@@H](CC[C@]3(C)[C@@H](O[Si](c4ccccc4)(c4ccccc4)C(C)(C)C)CC[C@@H]23)OC1=O`, in that order: 1.51 µM, 1.37 µM and 3.89 µM.
In the same order, the values of `C=C1C[C@@H]2[C@@H](CC[C@]3(C)[C@@H](OC(=O)c4ccccn4)CC[C@@H]23)OC1=O` are 13.7 µM, 8.85 µM and 16.6 µM.
For the compound `C=C[Si](C)(O[C@H]1CC[C@H]2[C@@H]3CC(=C)C(=O)O[C@@H]3CC[C@]12C)c1ccccc1` (some centres undefined), the IC50 with Kasumi 1 was 16.3 µM; in assay [1], 15.4 µM; in the assay on MV4-11 it was more than 20 µM.
Take `C=C1C[C@@H]2[C@@H](CC[C@]3(C)[C@@H](OC=O)CC[C@@H]23)OC1=O`: the IC50 in the assay on Kasumi 1 is 16.4 µM; in assay [1], 13.7 µM; in the assay on MV4-11, more than 20 µM.
For `C=C1C[C@@H]2[C@@H](CC[C@]3(C)[C@@H](OC(=O)C4CCCC4)CC[C@@H]23)OC1=O`, in that order: more than 20 µM, 15.3 µM and more than 20 µM.
In the same order, the values of `C=C1C[C@@H]2[C@@H](CC[C@]3(C)[C@@H](OS(=O)(=O)CCC)CC[C@@H]23)OC1=O` are more than 20 µM, more than 20 µM and more than 20 µM.
For `C[C@]12CC[C@H]3OC(=O)CC[C@H]3[C@@H]1CCC2=O`, in that order: more than 100 µM, more than 100 µM and more than 100 µM.
In the case of `C=C1C[C@@H]2[C@@H](CC[C@]3(C)[C@@H](OS(=O)(=O)CCN4C(=O)c5ccccc5C4=O)CC[C@@H]23)OC1=O`, the figures for the concentration for half-maximal inhibition (IC50) (in the assay with Kasumi 1; in assay [1]; with MV4-11) were 7.82 µM, 9.17 µM and 15.4 µM, respectively.
For `C=C1C[C@@H]2[C@@H](CC[C@]3(C)[C@@H](O[Si](C)(C)C)CC[C@@H]23)OC1=O`, in that order: 16.3 µM, 14.2 µM and more than 20 µM.
In the same order, the values of `C=C1C[C@@H]2[C@@H](CC[C@]3(C)[C@@H](OS(=O)(=O)c4c(C)noc4C)CC[C@@H]23)OC1=O` are 14.3 µM, 13.3 µM and 15.9 µM.
For `C=C1C[C@@H]2[C@@H](CC[C@]3(C)[C@@H](OS(=O)(=O)c4cccnc4)CC[C@@H]23)OC1=O`, in that order: 10.9 µM, 13.3 µM and more than 20 µM.
In the case of `C=C1C[C@@H]2[C@@H](CC[C@]3(C)[C@@H](O[Si](C)(C)C(C)C)CC[C@@H]23)OC1=O`, the IC50 (in the assay on Kasumi 1; in assay [1]; in the assay on MV4-11) was more than 20 µM each time.
For `C=C1C[C@@H]2[C@@H](CC[C@]3(C)[C@@H](OS(=O)(=O)c4ccsc4C(=O)OC)CC[C@@H]23)OC1=O`, the half-maximal inhibitory concentration (IC50) in the assay with Kasumi 1 was more than 20 µM; in assay [1], 18 µM; in the assay on MV4-11, more than 20 µM.
Take `C=C1C[C@@H]2[C@@H](CC[C@]3(C)[C@@H](OS(=O)(=O)C[C@]45CC[C@](C)(C(=O)C4)C5(C)C)CC[C@@H]23)OC1=O`: the values for the IC50 (in the assay on Kasumi 1; in assay [1]; in the assay with MV4-11) were 9.8 µM, 8.29 µM and 12.3 µM, respectively.
Regarding `C=C1C[C@@H]2[C@@H](CC[C@]3(C)[C@@H](OS(=O)(=O)Cc4ccccc4)CC[C@@H]23)OC1=O`, the concentration for half-maximal inhibition (IC50) was 15.3 µM in the assay with Kasumi 1, 18.6 µM in assay [1] and more than 20 µM with MV4-11.
In the same order, the values of `C=C1C[C@@H]2[C@@H](CC[C@]3(C)[C@@H](O[Si](CCC)(CCC)CCC)CC[C@@H]23)OC1=O` are 1.29 µM, 1.46 µM and 2.17 µM.
With `C=C1C[C@@H]2[C@@H](CC[C@]3(C)[C@@H](O[Si](OCC)(OCC)OCC)CC[C@@H]23)OC1=O`, the half-maximal inhibitory concentration (IC50) (in the assay with Kasumi 1; in assay [1]; in the assay with MV4-11) was more than 20 µM throughout.
With `C=C1C[C@@H]2[C@@H](CC[C@]3(C)[C@@H](OC(=O)c4ccc(OC)cc4)CC[C@@H]23)OC1=O`, the 50% inhibitory concentration (IC50) was 15.4 µM in the assay on Kasumi 1, 9.43 µM in assay [1] and more than 20 µM with MV4-11.
In the same order, the values of `C=C1C[C@@H]2[C@@H](CC[C@]3(C)[C@@H](OC(=O)C4CC4)CC[C@@H]23)OC1=O` are more than 20 µM, more than 20 µM and more than 20 µM.
For `C=C1C[C@@H]2[C@@H](CC[C@]3(C)[C@@H](O)CC[C@@H]23)OC1=O`, in that order: more than 20 µM, 12.6 µM and more than 20 µM.
In the same order, the values of `C=C1C[C@@H]2[C@@H](CC[C@]3(C)[C@@H](OS(=O)(=O)c4ccc(C#N)cc4)CC[C@@H]23)OC1=O` are 8.92 µM, 7.62 µM and 9.13 µM.
On to `C=C1C[C@@H]2[C@@H](CC[C@]3(C)[C@@H](O[Si](C)(C)CCCCl)CC[C@@H]23)OC1=O`, for which the IC50 (with Kasumi 1; in assay [1]; in the assay on MV4-11) was more than 20 µM each time.
